The values that follow come from patent US20260123631A1, “NATURAL PORPHIN SALT AND USE THEREOF AS PLANT GROWTH REGULATOR AND PLANT IMMUNITY INDUCER” (NANJING BOSTEC BIOLOGICAL ENGINEERING CO., LTD, priority 2022, published 2026).

Where two headings read alike, the source gives them in different places.

A short description of data set [1]: Stability of sample solutions in the dark/under light. It counts as physicochemical. Here is the method:
Determination: An appropriate amount of a salt sample was taken, dissolved with water, and diluted to prepare a test solution with a concentration of about 10 ppm. An acidic reference substance (extremely-insoluble in water) was prepared with a 30% to 50% ethanol aqueous solution into a test solution with a concentration of about 10 ppm.
Each test solution was scanned by an ultraviolet spectrophotometer (at 0 h) for absorbance in a range of 200 nm to 800 nm immediately after being prepared. Then a test solution of each sample was divided into two parts. One part was placed at room temperature of 25° C. in the dark, and the other part was placed under light with a light intensity of 30,000 lux. At 1 h, 2 h, and 3 h, a solution sample was collected and scanned for absorbance respectively.
An absorbance value of a maximum absorption peak at 0 h (starting) of each test solution was set as a relative content of 100%, and a ratio of an absorbance value at each time point to the absorbance value at 0 h was calculated to determine a relative content, %.

A short description of data set [2]: Dilution and pH determination for sample solutions. It counts as physicochemical. Here is the method:
Method: 0.2500 g of a sample was accurately weighed and added to a 25 mL volumetric flask, dissolved with purified water, and diluted to a specified scale to prepare a 1.00% (10,000.0 ppm) initial solution. The initial solution was diluted with purified water in different ratios to prepare a series of solutions with a concentration of 1,000.0 ppm to 0.1 ppm. A pH value of each sample was determined three times.

The nature of data set [3]: Water solubility of the prepared salts. In kind it is physicochemical.
Data set [4] concerns the target chlorophyllase. As to the kind of experiment: In vitro chlorophyllase-inhibiting activity test. It counts as biochemical, mung bean. Here is the method: A chlorophyllase inhibition rate of a salt sample solution at each concentration was determined, and an IC50 value for a chlorophyllase inhibition activity of a salt sample was calculated.
The subject of data set [5] is wheat. As to the kind of experiment: Germination of wheat and growth of seedlings. In kind it is in vivo, wheat (Huaimai 35). To be noted: for Root length / Root number / Root weight / Seedling height / Seedling weight: wheat seedlings. Here is the method:
Method: 3 replicates were set for each treatment. 50 full seeds with a consistent size were selected each time for each sample, disinfected with sodium hypochlorite for 5 min, rinsed with clear water, and placed in a plastic box filled with 100 g of a sand. 25 mL of a prepared sample solution was poured into the plastic box, and the seeds were arranged regularly. The plastic box was covered with a lid, and then incubated in a 25° C. incubator. The germination was determined when a length of a sprout of a wheat seed exceeded a half of a diameter (long axis) of the wheat seed (determination criterion). According to the growth of wheat, the germ exposure of seeds and the number of germinated seeds were recorded every day. On day 6, 10 wheat seedlings were randomly selected, and a root length, a plant height, and a root number were determined. On day 7, a root weight and an aboveground part weight were determined. All index data was produced based on 3 replicates.

[6] abbreviates: under light 30,000 lux, 1 h, salts in water, acidic reference in 30% to 50% ethanol.
Setting [7] is: under light 30,000 lux, 2 h, salts in water, acidic reference in 30% to 50% ethanol.
Where [8] appears, read: under light 30,000 lux, 3 h, salts in water, acidic reference in 30% to 50% ethanol.
Where [9] appears, read: substrate chlorophyll 120 ppm, sample 0.3 ppm to 30.0 ppm.

As to `C=CC1=C(C)c2cc3[n-]c(cc4nc(cc5[n-]c(cc1n2)c(C)c5C=C)C(C)=C4CCC(=O)[O-])c(CCC(=O)[O-])c3C.[Cl-].[Fe+3].[Na+].[Na+]` [Example 11, sodium chlorhematin], the Relative content in data set [1] (setting [6]) was found to be 74.11%; in data set [1] (setting [7]), 69.68%; in data set [1] (setting [8]) it was 67.73%. For the same molecule, the pH in data set [2] (20 ppm solution in water (Comparative Test 2)) was 7.5. In data set [3], the solubility in water result is “easily soluble”.

`C=CC1=C(C)c2cc3[n-]c(cc4nc(cc5[n-]c(cc1n2)c(C)c5C=C)C(C)=C4CCC(=O)[O-])c(CCC(=O)[O-])c3C.[Cl-].[Fe+3].[Mg+2]` [Example 13, magnesium chlorhematin]: the Relative content in data set [1] (in the dark, 25° C., 0 h) was found to be 100.00%; in data set [1] (in the dark, 25° C., 1 h), 100.10%; in data set [1] (in the dark, 25° C., 2 h) it was 99.76%; in data set [1] (in the dark, 25° C., 3 h), 99.38%; in data set [1] (under light 30,000 lux, 0 h), 100.00%; in data set [1] (setting [6]) it was 82.11%. Besides, the Relative content amounted to 81.84% in data set [1] (setting [7]) and 75.61% in data set [1] (setting [8]). Moreover, the pH entry in data set [2] (0.1 ppm in purified water) is on record as “(6.92)”; in data set [2] (1.0 ppm in purified water), “(7.27)”; in data set [2] (10.0 ppm in purified water) it was “(7.63)”; in data set [2] (20.0 ppm in purified water), “(7.77)”; in data set [2] (30.0 ppm in purified water), “(7.87)”; in data set [2] (100.0 ppm in purified water), “(8.01)”. Moreover, in data set [3], the solubility in water result is given as “soluble”.

For ammonium chlorin [Example 54], the “IC50 for chlorophyllase inhibition activity” value in data set [4] (setting [9]) stood at 6.05 ppm.

Turning to “ammonium copper chlorophyllin [Example 44]”, the “IC50 for chlorophyllase inhibition activity” value in data set [4] came out at 13.68 ppm.

As to ammonium iron chlorin [Example 22], the “IC50 for chlorophyllase inhibition activity” value in data set [4] (setting [9]) is given as 5.58 ppm.

For “ammonium iron chlorophyllin [Example 31]”, the “IC50 for chlorophyllase inhibition activity” value in data set [4] (setting [9]) stood at 5.43 ppm.

On to “ammonium zinc chlorophyllin [Example 35]”, for which, in data set [4] (setting [9]), the “IC50 for chlorophyllase inhibition activity” value is recorded as 18.06 ppm.

In the case of calcium chlorin [Example 56], the “IC50 for chlorophyllase inhibition activity” value in data set [4] (setting [9]) turned out to be 6.43 ppm.

As for “calcium copper chlorophyllin [Example 46]”, the “IC50 for chlorophyllase inhibition activity” value in data set [4] (setting [9]) is 13.49 ppm.

Turning to calcium iron chlorin [Example 24], the “IC50 for chlorophyllase inhibition activity” value in data set [4] (setting [9]) turned out to be 5.11 ppm.

As to “calcium iron chlorophyllin [Iron chlorophyllin Ca^2+]”, the Relative content came to 81.00% in data set [1] (setting [6]), 74.21% in data set [1] (setting [7]) and 63.35% in data set [1] (setting [8]). Also, the “IC50 for chlorophyllase inhibition activity” value in data set [4] (setting [9]) was 5.38 ppm.

For the molecule calcium zinc chlorophyllin [Example 37], in data set [4], the “IC50 for chlorophyllase inhibition activity” value was 17.78 ppm.

On to “copper iron hydroxychlorophyllin [Example 80]”, for which the Relative content worked out at 79.89% in data set [1] (setting [6]), 76.11% in data set [1] (setting [7]) and 73.21% in data set [1] (setting [8]). In addition, the solubility in water result in data set [3] is “slightly soluble”.

Take magnesium chlorin [Example 55]: the Relative content stood at 43.47% in data set [1] (setting [6]), 35.26% in data set [1] (setting [7]) and 30.41% in data set [1] (setting [8]). Further, the “IC50 for chlorophyllase inhibition activity” value in data set [4] (setting [9]) came to 6.22 ppm.

“magnesium copper chlorophyllin [Example 45]”: the Relative content in data set [1] (setting [6]) stood at 74.46%; in data set [1] (setting [7]), 68.03%; in data set [1] (setting [8]), 66.86%. Besides, in data set [4] (setting [9]), the “IC50 for chlorophyllase inhibition activity” value is 11.87 ppm.

For magnesium iron chlorin [Example 23], the Relative content in data set [1] (setting [6]) stood at 74.25%; in data set [1] (setting [7]) it was 66.34%; in data set [1] (setting [8]), 62.11%. Further, in data set [4] (setting [9]), the “IC50 for chlorophyllase inhibition activity” value came to 5.06 ppm.

As for magnesium protoporphyrin [Example 3], the Relative content in data set [1] (setting [6]) is 93.32%; in data set [1] (setting [7]), 90.98%; in data set [1] (setting [8]) it was 89.65%. In addition, in data set [3], the solubility in water entry is listed as “soluble”.

For the molecule “magnesium zinc chlorophyllin [Example 36]”, the Relative content in data set [1] (setting [6]) is 53.53%; in data set [1] (setting [7]) it was 45.74%; in data set [1] (setting [8]) it was 39.42%. Besides, the “IC50 for chlorophyllase inhibition activity” value in data set [4] (setting [9]) is listed as 16.37 ppm.

For the molecule manganese hydroxyhematin [Example 66], the Relative content in data set [1] (setting [6]) is reported as 87.45%; in data set [1] (setting [7]) it was 83.77%; in data set [1] (setting [8]), 80.00%. The solubility in water entry in data set [3] is on record as “slightly soluble”.

Regarding “manganese iron chlorophyllin [Iron chlorophyllin Mn^2+]”, the Relative content came out at 70.13% in data set [1] (setting [6]), 61.00% in data set [1] (setting [7]) and 58.68% in data set [1] (setting [8]). In addition, in data set [4] (setting [9]), the “IC50 for chlorophyllase inhibition activity” value was found to be 5.55 ppm.

Take “manganese iron hydroxychlorophyllin [Example 78]”: the Relative content is listed as 75.51% in data set [1] (setting [6]), 70.44% in data set [1] (setting [7]) and 68.12% in data set [1] (setting [8]). For the same molecule, the solubility in water result in data set [3] is “slightly soluble”.

As for “manganese zinc chlorophyllin [Example 40]”, the “IC50 for chlorophyllase inhibition activity” value in data set [4] stood at 18.10 ppm.

Take potassium hydroxyhematin [Example 62]: the results for the Relative content in data set [1] (setting [6]), in data set [1] (setting [7]) and in data set [1] (setting [8]) were 77.06%, 75.72% and 73.04%, respectively. For the same molecule, the solubility in water entry in data set [3] is on record as “easily soluble”.

Turning to “potassium iron hydroxychlorophyllin [Example 71]”, the values for the Relative content in data set [1] (setting [6]), in data set [1] (setting [7]) and in data set [1] (setting [8]) were 62.96%, 54.32% and 49.38%, respectively. The solubility in water result in data set [3] is given as “easily soluble”.

For potassium protoporphyrin [Example 1], the Relative content in data set [1] (setting [6]) was determined as 65.90%. For the same molecule, in data set [1] (setting [7]), the Relative content is recorded as 56.97%. Besides, the Relative content in data set [1] (setting [8]) worked out at 58.17%. In data set [5] (0.0025 ppm), the “Germination rate of wheat” value came out at 94.7%, the Root length was 9.63 cm, the Root number was 5.4 and the Root weight amounted to 0.1230 g. In addition, in data set [5] (0.0025 ppm), the Seedling height amounted to 8.95 cm and the Seedling weight was 0.241 g. Also, in data set [5] (0.0250 ppm), the “Germination rate of wheat” value stood at 95.3%, the Root length amounted to 10.17 cm, the Root number was 5.2 and the Root weight came to 0.0976 g. In data set [5] (0.0250 ppm), this molecule showed a Seedling height of 9.48 cm and a Seedling weight of 0.242 g. Besides, in data set [5] (0.2500 ppm), the “Germination rate of wheat” value was found to be 90.7%, the Root length was determined as 8.68 cm, the Root number is given as 5.3 and the Root weight is recorded as 0.1134 g. In addition, in data set [5] (0.2500 ppm), the Seedling height was 7.64 cm and the Seedling weight is reported as 0.228 g. Besides, the solubility in water entry in data set [3] is listed as “easily soluble”.

Take “potassium zinc chlorophyllin [Zinc chlorophyllin K^+]”: the results for the Relative content in data set [1] (setting [6]), in data set [1] (setting [7]) and in data set [1] (setting [8]) were 52.48%, 46.08% and 41.51%, respectively. The “IC50 for chlorophyllase inhibition activity” value in data set [4] (setting [9]) was 15.55 ppm.

For “sodium iron hydroxychlorophyllin [Example 72]”, the values for the Relative content in data set [1] (setting [6]), in data set [1] (setting [7]) and in data set [1] (setting [8]) were 60.39%, 52.14% and 47.32%, respectively. Besides, the solubility in water entry in data set [3] is recorded as “easily soluble”.

Regarding zinc hydroxyhematin [Example 69], the Relative content in data set [1] (setting [6]) worked out at 94.32%; in data set [1] (setting [7]) it was 93.24%; in data set [1] (setting [8]), 90.85%. Besides, the solubility in water result in data set [3] is listed as “slightly soluble”.

On to “zinc iron hydroxychlorophyllin [Example 79]”, for which the figures for the Relative content in data set [1] (setting [6]), in data set [1] (setting [7]) and in data set [1] (setting [8]) were 73.29%, 69.57% and 65.55%, respectively. Further, the solubility in water result in data set [3] is listed as “slightly soluble”.
